Test results reported in paper PMC5891386 (Bioorganic & medicinal chemistry, 2018).

Key:
[1] = tested on: aspartate levels in cells; details: irrespective of PHGDH levels; cited from earlier work
[2] = Aqueous kinetic solubility; assay type: physicochemical; details: pH 7.4
[3] = tested on: PHGDH; details: cited from earlier work

SMILES	Aqueous Solubility (kinetic) [2]	efficacy in vivo [3]	other results
Cc1cc(C)nc(NC(=S)N2CCN(c3ccc(C(F)(F)F)cn3)CC2)c1 [Compound 27, N-(4,6-dimethylpyridin-2-yl)-4-(5-(trifluoromethyl)pyridin-2-yl)piperazine-1-carbothioamide]			aspartate levels in cells [1]: reduce aspartate levels in cells
Cc1cc(C)nc(NC(=S)N2CCCC(Nc3ccc(C(F)(F)F)cc3)C2)c1 (centres unmarked) [Compound 33]	below the limits of quantitation		
Cc1cc(C)nc(NC(=S)N2CCC(Nc3cccc(C(F)(F)F)c3)CC2)c1 [Compound 37]	below the limits of quantitation		
O=C(N/N=C/c1cc([N+](=O)[O-])ccc1O)c1ccc(O)cc1O [PKUMDL-WQ-2101]		efficacious in vivo	
CCNC(=S)N/N=C/c1ccc(-c2ccc(C(=O)O)c(Cl)c2)o1 [PKUMDL-WQ-2201]		efficacious in vivo	
